The record followed here is US11679108B2, “Aromatic heterocyclic compound, and pharmaceutical composition and use thereof” (GUANGZHOU HENOVCOM BIOSCIENCE CO., LTD., priority 2018, dated 2023).

A word on the IC50: it is the point on the concentration scale where inhibition reaches its midpoint. Higher therefore signals lower potency.

The structures appear in SMILES notation.

In one assay the target is ATX (Homo sapiens, UniProt Q13822). The assay is described as follows: Analysis in vitro: LPC was used as substrate for screening enzyme activity (Amplex Red fluorescence). The class given is biochemical. The conditions noted are these: inhibitory activity against ATX, with LPC as substrate. An excerpt: Analysis In Vitro: LPC was Used as Substrate for Screening Enzyme Activity
Principle: Lysophosphatidylcholine (LPC) as substrate is hydrolyzed by using the activity of lysoPLD enzyme, to produce lysophosphatidic acid (LPA) and choline, which is oxidized to produce H2O2 under the action of choline oxidase. In presence of horse radish peroxidase (HPR), Amplex Red reagent is reacted with H2O2 in a quantitative chemistry ratio of 1 to 1, to produce strong fluorescence products, which are detected by a fluorescent quantitative test.
Experimental procedures: the compounds to be tested were dissolved in DMSO, to prepare 10 mM of stock solution, which was diluted in a gradient concentration of 3 times with DMSO from 10 mM, to generate 10 concentration gradients. The reaction buffer solution was used for preparing a mixed solution 1 of 2 ng/μl ATX, 2 U/ml HRP and 0.2 U/ml choline oxidase in a final concentration. 20 μl of the above mixed solution 1 was added to each hole of an experiment board, […]. The compounds diluted with DMSO were transferred into an experiment board with Echo550. The reaction buffer solution was used for preparing a mixed solution 2 of […] LPC and 400 μM Amplex Red in a final concentration. 20 μl of the above mixed solution 2 was added to each hole of the experiment board. After addition, the experiment board was shook for 30 seconds on a shaker, and incubated for 30 minutes. Envision was used to read the fluorescence signals with an exciting light at 530 nm and emitted light at 590 nm. Inhibition ratio of the compounds to enzyme reaction was calculated according to the ratio of fluorescence, and IC50 of the compounds was analyzed and calculated by software, seeing Table 1.

A further assay deals with T1, ATX in human plasma (Homo sapiens, UniProt Q13822).
T1 construct: blank plasma was derived from at least 6 individual people; from tissue; host or cells: human plasma (pooled from at least 6 individuals)
The assay can be described thus: Analysis in vitro: detection of LPA in human plasma for screening activity (LPA 18:2 by LC/MS/MS). The conditions noted are these: incubated 2 hours at 37° C., LPA 18:2 detected by LC/MS/MS. The class given is biochemical. An excerpt: Analysis In Vitro: Detection of LPA in Human Plasma for Screening Activity
Principle: LPC in plasma being used as a substrate, the produced LPA 18:2 (LPA 17:0 as an internal standard) is detected by LC/MS/MS quantitative analysis. At different concentrations of the compounds to be tested, the percentage of residual activity is obtained by the ratio of the production of LPA18:2 to that in the absence of the compounds to be tested, thereby calculating IC50 values.
Experiment procedures: blank plasma was derived from at least 6 individual people. The compounds to be tested were diluted from stock solution in 3-fold dilution gradient, to produce 8 concentrations of working solution (with zero) in series. 10 μL of the melting blank plasma samples were taken and iced methanol solution containing internal standard (LPA 17:0) was added to it, so that the mixture directedly performed protein precipitation, which served as a system control sample. 2 μL of the working solution in different concentration was taken and 198 μL of blank human plasma was added, which was incubated with a concentration of 0 to 10 μM. The samples were placed at an incubater containing 5% CO2 at 37° C., and incubated for 2 hours. When the incubation was completed, 10 μL of plasma sample was taken and appropriate volume of iced methanol solution containing internal standard (LPA 17:0) was added into it, so that the mixture directedly performed protein precipitation. The precipitation was centrifuged to take supernatant. LPA 18:2 was detected by LC/MS/MS and IC50 values were analyzed and calculated by software, seeing Table 2.

As for `CCc1nc2sc(N3CCN(CC(=O)N4CC(O)C4)CC3)nn2c1N(C)c1nc(-c2ccc(F)cc2)c(C#N)s1` [Example 2, 2-{[6-ethyl-2-(4-(2-(3-hydroxyazetidin-1-yl)-2-oxoethyl)piperazin-1-yl)imidazo[2,1-b][1,3,4]thiadiazol-5-yl](methyl)amino}-4-(4-fluorophenyl)thiazole-5-carbonitrile], the concentration for half-maximal inhibition (IC50) against ATX and at ATX in human plasma was 100 to 500 nM in each case.
As for `CCc1nc2sc(N3CCC4(CC3)CN(CC(=O)N3CC(O)C3)C4)nn2c1N(C)c1nc(-c2ccc(F)cc2)c(C#N)s1` [Example 4], the IC50 was in the range of 100 to 500 nM against ATX and 0.01 to 100 nM against ATX in human plasma.
For `CCc1nc2sc(N3CCC4(CC3)CN(C(N)=O)C4)nn2c1N(C)c1nc(-c2ccc(F)cc2)c(C#N)s1` [Example 8], the IC50 against ATX and at ATX in human plasma was 100 to 500 nM in each case.
With `CCc1nc2sc(N3CCC(N(C)S(C)(=O)=O)C3)nn2c1N(C)c1nc(-c2ccc(F)cc2)c(C#N)s1` (stereo not drawn) [Example 10, N-{1-[5-((5-cyano-4-(4-fluorophenyl)thiazol-2-yl)(methyl)amino)-6-ethylimidazo[2,1-b][1,3,4]thiadiazol-2-yl}pyrrolidin-3-yl]-N-methylmethanesulfonamide], the IC50 on ATX and against ATX in human plasma was 0.01 to 100 nM throughout.
On to `CCc1nc2sc(N3CCC(N(C)CC(=O)N4CC(O)C4)C3)nn2c1N(C)c1nc(-c2ccc(F)cc2)c(C#N)s1` (stereo not drawn) [Example 11], for which the IC50 at ATX and at ATX in human plasma was 0.01 to 100 nM throughout.
Regarding `CCc1nc2sc(N3CCC(N(C)C(N)=O)C3)nn2c1N(C)c1nc(-c2ccc(F)cc2)c(C#N)s1` (stereo not drawn) [Example 12, 1-{1-[5-((5-cyano-4-(4-fluorophenyl)thiazol-2-yl)(methyl)amino)-6-ethylimidazo[2,1-b][1,3,4]thiadiazol-2-yl]pyrrolidin-3-yl}-1-methylurea], the IC50 at ATX and at ATX in human plasma was 0.01 to 100 nM in each case.
Take `CCc1nc2sc(N3CCCC(N(C)CC(=O)N4CC(O)C4)C3)nn2c1N(C)c1nc(-c2ccc(F)cc2)c(C#N)s1` (stereo not drawn) [Example 14]: the IC50 at ATX and against ATX in human plasma was 0.01 to 100 nM in each case.
Regarding `CCc1nc2sc(N3CCCC(N(C)C(N)=O)C3)nn2c1N(C)c1nc(-c2ccc(F)cc2)c(C#N)s1` (stereo not drawn) [Example 15, 1-{1-[5-((5-cyano-4-(4-fluorophenyl)thiazol-2-yl)(methyl)amino)-6-ethylimidazo[2,1-b][1,3,4]thiadiazol-2-yl]piperidin-3-yl}-1-methylurea], the IC50 against ATX and against ATX in human plasma was 0.01 to 100 nM in each case.
For the compound `CCc1nc2sc(C3CCN(CC(=O)N4CC(O)C4)CC3)nn2c1N(C)c1nc(-c2ccc(F)cc2)c(C#N)s1` [Example 17, 2-{[6-ethyl-2-(1-(2-(3-hydroxyazetidin-1-yl)-2oxoethyl)piperidin-4-yl)imidazo[2,1-b][1,3,4]thiadiazol-5-yl](methyl)amino}-4-(4-fluorophenyl)thiazole-5-carbonitrile], the concentration for half-maximal inhibition (IC50) was in the range of 100 to 500 nM on ATX and 0.01 to 100 nM against ATX in human plasma.
On the same counts, the results for `CCc1nc2sc(N3CC[C@@H](N(C)C(N)=O)C3)nn2c1N(C)c1nc(-c2ccc(F)cc2)c(C#N)s1` [Example 19, (R)-1-{1-[5-((5-cyano-4-(4-fluorophenyl)thiazol-2-yl)(methyl)amino)-6-ethylimidazo[2,1-b][1,3,4]thiadiazol-2-yl]pyrrolidin-3-yl}-1-methylurea] are 0.01 to 100 nM and 100 to 500 nM.
Take `CCc1nc2sc(N3CC[C@H](N(C)C(N)=O)C3)nn2c1N(C)c1nc(-c2ccc(F)cc2)c(C#N)s1` [Example 20, (S)-1-{1-[5-((5-cyano-4-(4-fluorophenyl)thiazol-2-yl)(methyl)amino)-6-ethylimidazo[2,1-b][1,3,4]thiadiazol-2-yl]pyrrolidin-3-yl}-1-methylurea]: the IC50 on ATX and against ATX in human plasma was 0.01 to 100 nM in each case.
`CCc1nc2sc(N3CC[C@@H](N(C)CC(=O)N4CC(O)C4)C3)nn2c1N(C)c1nc(-c2ccc(F)cc2)c(C#N)s1` [Example 21, (R)-2-{[6-ethyl-2-(3-((2-(3-hydroxyazetidin-1-yl)-2-oxoethyl)(methyl)amino)pyrrolidin-1-yl)imidazo[2,1-b][1,3,4]thiadiazol-5-yl](methyl)amino}-4-(4-fluorophenyl)thiazole-5-carbonitrile]: the IC50 against ATX and at ATX in human plasma was 0.01 to 100 nM throughout.
`CCc1nc2sc(N3CC[C@H](N(C)CC(=O)N4CC(O)C4)C3)nn2c1N(C)c1nc(-c2ccc(F)cc2)c(C#N)s1` [Example 22, (S)-2-{[6-ethyl-2-(3-((2-(3-hydroxyazetidin-1-yl)-2oxoethyl)(methyl)amino)pyrrolidin-1-yl)imidazo[2,1-b][1,3,4]thiadiazol-5-yl](methyl)amino}-4-(4-fluorophenyl)thiazole-5-carbonitrile]: the IC50 at ATX and on ATX in human plasma was 0.01 to 100 nM each time.
As to `CCc1nc2sc(N3CCC[C@@H](N(C)CC(=O)N4CC(O)C4)C3)nn2c1N(C)c1nc(-c2ccc(F)cc2)c(C#N)s1` [Example 23, (R)-2-{[6-ethyl-2-(3-((2-(3-hydroxyazetidin-1-yl)-2-oxoethyl)(methyl)amino)piperidin-1-yl)imidazo[2,1-b][1,3,4]thiadiazol-5-yl](methyl)amino}-4-(4-fluorophenyl)thiazole-5-carbonitrile], the IC50 against ATX and against ATX in human plasma was 100 to 500 nM each time.
`CCc1nc2sc(N3C[C@@H](C)N(CC(=O)N4CC(O)C4)C[C@H]3C)nn2c1N(C)c1nc(-c2ccc(F)cc2)c(C#N)s1` [Example 75, 2-{[6-ethyl-2-((2R,5R)-4-(2-(3-hydroxyazetidin-1-yl)-2-oxoethyl)-2,5-dimethylpiperazin-1-yl)imidazo[2,1-b][1,3,4]thiadiazol-5-yl](methyl)amino}-4-(4-fluorophenyl)thiazole-5-carbonitrile] had an IC50 on ATX in human plasma of 100 to 500 nM.
In turn, `CCc1nc2sc(N3CCN(CC(=O)N4CC(O)C4)C(C)C3C)nn2c1N(C)c1nc(-c2ccc(F)cc2)c(C#N)s1` (stereo not drawn) [Example 77, 2-{[6-ethyl-2-(4-(2-(3-hydroxyazetidin-1-yl)-2-oxoethyl)-2,3-dimethylpiperazin-1-yl)imidazo[2,1-b][1,3,4]thiadiazol-5-yl](methyl)amino}-4-(4-fluorophenyl)thiazole-5-carbonitrile] gave an IC50 against ATX in human plasma of 0.01 to 100 nM.
On the same count and under the same terms, with `CCc1nc2sc(N3CC[C@@H](N(C)C(C)C(=O)N4CC(O)C4)C3)nn2c1N(C)c1nc(-c2ccc(F)cc2)c(C#N)s1` (stereo partly drawn) [Example 78, 2-{[6-ethyl-2-((3R)-3-((1-(3-hydroxyazetidin-1-yl)-1-oxopropan-2-yl)(methyl)amino)pyrrolidin-1-yl)imidazo[2,1-b][1,3,4]thiadiazol-5-yl](methyl)amino}-4-(4-fluorophenyl)thiazol-5-carbonitrile] the figure was 0.01 to 100 nM; with `CCc1nc2sc(N3CCC(C(=O)N4CC(O)C4)CC3)nn2c1N(C)c1nc(-c2ccc(F)cc2)c(C#N)s1` [Example 79, 2-{[6-ethyl-2-(4-(3-hydroxyazetidin-1-carbonyl)piperidin-1-yl)imidazo[2,1-b][1,3,4]thiadiazol-5-yl](methyl)amino}-4-(4-fluorophenyl)thiazole-5-carbonitrile], 100 to 500 nM.
Compound `CCc1nc2sc(N3CC[C@@H](NCC(=O)N4CC(O)C4)C3)nn2c1N(C)c1nc(-c2ccc(F)cc2)c(C#N)s1` [Example 80, (R)-2-{[6-ethyl-2-(3-((2-(3-hydroxyazetidin-1-yl)-2-oxoethyl)amino)pyrrolidin-1-yl)imidazo[2,1-b][1,3,4]thiadiazol-5-yl](methyl)amino}-4-(4-fluorophenyl)thiazol-5-carbonitrile] came in with an IC50 on ATX in human plasma of 0.01 to 100 nM.
